Tests used:
Settings in all cases: incubation time: 72 h
HDQ-P1 [1] = test: normalised response (% of control), CellTox Green; higher = less cell death (100 = DMSO, 0 = benzethonium chloride kill control)
Summary of the method: (§1)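 Each value is the plate-normalised signal at one concentration of the series. Breast cancer cell lines (20 µl suspension) were incubated 72 h in 384-well plates with compound at 5 concentrations in 10-fold steps over a compound-specific 10,000-fold range. CellTox Green and then CellTiter-Glo were read, and each plate was scaled to 0.1 % DMSO (100) and a positive kill control (0).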

CAL-120 [2] = test: as above
Summary of the method: as §1

MDA-MB-436 [3] = test: as above
Summary of the method: as §1

MDA-MB-468 [4] = test: as above
Summary of the method: as §1

MCF-10A [5] = test: as above
Summary of the method: as §1

HCC1143 [6] = test: as above
Summary of the method: as §1

CAL-51 [7] = test: as above
Summary of the method: as §1

BT-474 [8] = test: as above
Summary of the method: as §1

MFM-223 [9] = test: as above
Summary of the method: as §1

MDA-MB-231 [10] = test: as above
Summary of the method: as §1

DU-4475 [11] = test: as above
Summary of the method: as §1

HCC1937 [12] = test: as above
Summary of the method: as §1

CAL-85-1 [13] = test: as above
Summary of the method: as §1

MDA-MB-453 [14] = test: as above
Summary of the method: as §1

CAL-148 [15] = test: as above
Summary of the method: as §1

BT-549 [16] = test: as above
Summary of the method: as §1

HCC1599 [17] = test: as above
Summary of the method: as §1

HDQ-P1 [18] = test: normalised response (% of control), CellTiter-Glo; higher = more viable cells (100 = DMSO, 0 = benzethonium chloride kill control)
Experimental: (§2)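 DSRT, 72 h incubation, CellTox Green / CellTiter-Glo readout. Signal is normalised to DMSO and benzethonium chloride controls. Value is the normalised response at dose 3.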

CAL-120 [19] = test: as above
Experimental: as §2

Hs578T [20] = test: as above
Experimental: as §2

MDA-MB-436 [21] = test: as above
Experimental: as §2

MDA-MB-468 [22] = test: as above
Experimental: as §2

MCF-10A [23] = test: as above
Experimental: as §2

HCC1143 [24] = test: as above
Experimental: as §2

CAL-51 [25] = test: as above
Experimental: as §2

BT-474 [26] = test: as above
Experimental: as §2

MFM-223 [27] = test: as above
Experimental: as §2

MDA-MB-231 [28] = test: as above
Experimental: as §2

SK-BR-3 = test: as above
Experimental: as §2

DU-4475 [29] = test: as above
Experimental: as §2

HCC1937 [30] = test: as above
Experimental: as §2

CAL-85-1 [31] = test: as above
Experimental: as §2

MDA-MB-453 [32] = test: as above
Experimental: as §2

CAL-148 [33] = test: as above
Experimental: as §2

BT-549 [34] = test: as above
Experimental: as §2

HCC1599 [35] = test: as above
Experimental: as §2

Hs578T [36] = test: normalised response (% of control), CellTox Green; higher = less cell death (100 = DMSO, 0 = benzethonium chloride kill control)
Summary of the method: as §1

Structure (SMILES)	normalised response (HDQ-P1 [1])	normalised response (CAL-120 [2])	normalised response (MDA-MB-436 [3])	normalised response (MDA-MB-468 [4])	normalised response (MCF-10A [5])	normalised response (HCC1143 [6])	normalised response (CAL-51 [7])	normalised response (BT-474 [8])	normalised response (MFM-223 [9])	normalised response (MDA-MB-231 [10])	normalised response (DU-4475 [11])	normalised response (HCC1937 [12])	normalised response (CAL-85-1 [13])	normalised response (MDA-MB-453 [14])	normalised response (CAL-148 [15])	normalised response (BT-549 [16])	normalised response (HCC1599 [17])	normalised response (HDQ-P1 [18])	normalised response (CAL-120 [19])	normalised response (Hs578T [20])	normalised response (MDA-MB-436 [21])	normalised response (MDA-MB-468 [22])	normalised response (MCF-10A [23])	normalised response (HCC1143 [24])	normalised response (CAL-51 [25])	normalised response (BT-474 [26])	normalised response (MFM-223 [27])	normalised response (MDA-MB-231 [28])	normalised response (SK-BR-3)	normalised response (DU-4475 [29])	normalised response (HCC1937 [30])	normalised response (CAL-85-1 [31])	normalised response (MDA-MB-453 [32])	normalised response (CAL-148 [33])	normalised response (BT-549 [34])	normalised response (HCC1599 [35])	normalised response (Hs578T [36])
N[C@@H](Cc1ccc(N(CCCl)CCCl)cc1)C(=O)O [Melphalan] (125 nM)	108%	101%	103%	87.3%	98.4%	102%	75.1%	102%	96.1%	50.5%	107%	99.1%	104%	76.5%	89.5%	103%	88.9%	90.1%	108%	93.1%	98.1%	75.4%	103%	90.2%	67.5%	91.5%	91.5%	83.3%	84.8%	92.7%	83.4%	105%	79.2%	78.3%	100%	104%	
C[C@]12C=CC(=O)C=C1CC[C@@H]1[C@@H]2C(=O)C[C@@]2(C)[C@H]1CC[C@]2(O)C(=O)CO [Prednisone] (100 nM)		99.5%	92.4%	126%	85.8%	119%	101%	103%	78.5%		103%		104%	107%	64.5%	96.7%	105%	101%	103%	101%	101%	99.3%	109%	105%	68.4%	107%	102%	107%	104%	101%	101%	103%	113%	117%	99.8%	133%	111%
CO[C@H]1C[C@@H]2CC[C@@H](C)[C@@](O)(O2)C(=O)C(=O)N2CCCC[C@H]2C(=O)O[C@H]([C@H](C)C[C@@H]2CC[C@@H](O)[C@H](OC)C2)CC(=O)[C@H](C)/C=C(\C)[C@@H](O)[C@@H](OC)C(=O)[C@H](C)C[C@H](C)/C=C/C=C/C=C/1C [Sirolimus] (1 nM)	97.1%	97.4%	79.2%	119%	91.9%	78.7%	107%	102%	92.6%	109%	105%		105%	109%	103%	78.5%	94.8%	102%	98%	88.2%	92.4%	71.1%	112%	92.5%	90.1%	90.5%	96.5%	101%	95.4%	98.7%	85.6%	78.4%	93.7%	94.2%	83.5%	103%	
